Measurements published in patent US20260241046A1, “PROSTATE-SPECIFIC MEMBRANE ANTIGEN RECEPTOR-TARGETING RADIOPHARMACEUTICALS AND USES THEREOF” (Nuclidium AG, priority 2024, published 2026).
Where “and” joins values, the source holds several entries; their conditions need not be identical. Equal entries are not always repeated.

How the values were obtained:
[1] = test system: LNCaP cells; test: In vitro efflux rate; type: cell-based, human; details: for Cell-associated fraction, With competitor: 100-fold excess DOTAGA-PSMA I&T
Protocol: Efflux-rate assays were performed on 6-well plates pre-treated with poly-L-lysine to promote adhesion. The plated cells were incubated with [^61Cu]Cu-NODAGA-PSMA I&T (100 μL, 0.5 nM) at 37° C. For non-specific uptake measurement, 100 μL of 2-PMPA (10 μM) was added to some wells. After 1 h, the cell-released fraction was collected by removing the medium and washing it twice with PBS. Then, the cells were incubated at 37° C. in a fresh medium for up to 180 min. At each time point, the medium was removed and replaced by fresh pre-warmed (37° C.) medium. At the end of the experiment, the cells were detached with 1 M sodium hydroxide and collected to determine the remaining cell-binding [^61Cu]Cu-NODAGA-PSMA I&T. The different fractions were quantified using a γ-counter (Cobra II, Packard A Canberra) and represented as a percentage of the applied radioactivity.
The experiment was also performed in the presence of a competitor (100-fold excess DOTAGA-PSMA I&T) to obtain a “rebinding free” system. The presence of the competitor prevented any rebinding of [^61Cu]Cu-NODAGA-PSMA I&T that dissociates faster. The values were calculated as a percentage of the cell-associated fraction (surface-bound and internalized fraction), subtracting the non-specific uptake (measured in the presence of 10 μM 2-PMPA).

[2] = test system: LNCaP xenografted mice; test: PET/CT imaging in mice; type: in vivo
Protocol: Unless otherwise specified, the in vivo studies were performed on athymic nude Foxn1^nu 4-6-week-old mice. Animals were injected in the shoulder with LNCaP cells (10^7 cells/200 μL) suspended in 1:1 (v: v) EMEM EBS medium and Matrigel. The in vivo experiments were performed when tumors reached a volume between 100-500 mm^3. At the intervention, all mice were between 7 and 11 weeks old. All animal experiments were performed following the guidelines for the use of living animals in scientific studies and the Swiss regulations for the protection of animals.
LNCap xenografted mice were injected i.v. into the tail vein with 4-8 MBq (400 pmol) of [^61Cu]Cu-NODAGA-PSMA I&T diluted in 100 μL saline solution. Dynamic PET scans were acquired for 1 hour upon injection of the radiotracer. The mice were euthanized using carbon dioxide at 4 hours post-injection, the bladder was mechanically emptied, and static PET scans were acquired for 30 min. PET images were obtained using the β-CUBE PET scanner system (MOLECUBES, Gent, Belgium) and were decay corrected and reconstructed with the VivoQuant software version 4.0. Tomograms and helical CT scans of the whole mouse were first acquired using a NanoSPECT/CTTM scanner (Bioscan Inc.). CT images were reconstructed using CTReco (version r1.146), resulting in a pixel size of 0.2 mm. […]

[3] = Dosimetry calculations (OLINDA/EXM 1.0, extrapolated human dose)
Excerpt: The data from the pharmacokinetic studies (Table 26) was decay-corrected using the half-life of ^61Cu to extrapolate the human dose. Since there were no measurements of the radioactivity accumulation in red marrow, this was estimated assuming a linear relationship between the blood and the red marrow residence times. The proportionality factor used was the ratio between the red marrow mass and human blood mass. The residence time (RT) for the stomach was approximated to be equal to the RT of the stomach wall since the animals were subjected to fasting before the biodistribution experiments. The heart was emptied from blood before measurements, and it was assumed that the total measured heart uptake was associated with the heart wall.
OLINDA/EXM 1.0 was used to integrate the fitted time-activity curves and to estimate the organ and effective doses using standard human whole-body adult female and male phantom models. Since the salivary glands are PSMA-positive and the organ is not included in the phantom, the dose absorbed was calculated separately, assuming that the weight of the human salivary gland is 30 g.

## O=C([O-])CN1CCN(CC(=O)[O-])CCN([C@H](CCC(=O)N[C@H](Cc2ccc(O)c(I)c2)C(=O)N[C@H](Cc2ccccc2)C(=O)N[C@H](CCCCNC(=O)CCCCCCC(=O)NCCCC[C@H](NC(=O)N[C@@H](CCC(=O)O)C(=O)O)C(=O)O)C(=O)O)C(=O)O)CC1.[61Cu+2] [[^61Cu]Cu-NODAGA-PSMA I&T]
[1]; 10 min
  Cell-associated fraction, Without competitor: 83.8 ± 0.7%
  Cell-associated fraction, With competitor: 67.9 ± 1.1%
[1]; 20 min
  Cell-associated fraction, Without competitor: 73.5 ± 0.8%
  Cell-associated fraction, With competitor: 54.4 ± 0.7%
[1]; 30 min
  Cell-associated fraction, Without competitor: 65.2 ± 1.4%
  Cell-associated fraction, With competitor: 46.5 ± 0.4%
[1]; 45 min
  Cell-associated fraction, Without competitor: 57.0 ± 2.8%
  Cell-associated fraction, With competitor: 39.9 ± 0.6%
[1]; 60 min
  Cell-associated fraction, Without competitor: 51.3 ± 3.3%
  Cell-associated fraction, With competitor: 35.9 ± 0.9%
[1]; 90 min
  Cell-associated fraction, Without competitor: 45.0 ± 3.3%
  Cell-associated fraction, With competitor: 29.9 ± 1.1%
[1]; 120 min
  Cell-associated fraction, Without competitor: 40.0 ± 3.5%
  Cell-associated fraction, With competitor: 25.0 ± 0.5%
[1]; 150 min
  Cell-associated fraction, Without competitor: 35.4 ± 3.1%
  Cell-associated fraction, With competitor: 20.9 ± 0.4%
[1]; 180 min
  Cell-associated fraction, Without competitor: 31.5 ± 2.5%
  Cell-associated fraction, With competitor: 17.5 ± 0.5%
[2]
  time of maximum accumulation in the tumor: 1 hour post-injection
  time of optimal tumor-to-background signal ratio: 4 hours post-injection
[3]; Female
  Effective Dose: 0.0095 mSv/MBq and 9.54E−03 mSv/MBq
  Total absorbed dose, Adrenals: 9.86E−02 mGy/MBq
  Total absorbed dose, Brain: 5.59E−05 mGy/MBq
  Total absorbed dose, Breasts: 1.23E−03 mGy/MBq
  Total absorbed dose, Gallbladder Wall: 1.37E−02 mGy/MBq
  Total absorbed dose, Heart Wall: 5.03E−03 mGy/MBq
  Total absorbed dose, Kidneys: 1.00E+00 mGy/MBq
  Total absorbed dose, LLI Wall: 3.24E−03 mGy/MBq
  Total absorbed dose, Liver: 1.83E−02 mGy/MBq
  Total absorbed dose, Lungs: 4.86E−03 mGy/MBq
  Total absorbed dose, Muscle: 4.03E−03 mGy/MBq
  Total absorbed dose, Osteogenic Cells: 3.93E−03 mGy/MBq
  Total absorbed dose, Ovaries: 4.76E−03 mGy/MBq
  Total absorbed dose, Pancreas: 3.18E−02 mGy/MBq
  Total absorbed dose, Red Marrow: 6.94E−03 mGy/MBq
  Total absorbed dose, Skin: 1.82E−03 mGy/MBq
  Total absorbed dose, Small Intestine: 2.78E−02 mGy/MBq
  Total absorbed dose, Spleen: 5.65E−02 mGy/MBq
  Total absorbed dose, Stomach Wall: 1.08E−02 mGy/MBq
  Total absorbed dose, Thymus: 1.11E−03 mGy/MBq
  Total absorbed dose, Thyroid: 2.72E−04 mGy/MBq
  Total absorbed dose, Total Body: 9.46E−03 mGy/MBq
  Total absorbed dose, ULI Wall: 9.78E−03 mGy/MBq
  Total absorbed dose, Urinary Bladder Wall: 1.60E−03 mGy/MBq
  Total absorbed dose, Uterus: 3.94E−03 mGy/MBq
[3]; Male
  Effective Dose: 0.0142 mSv/MBq and 1.42E−02 mSv/MBq
  Total absorbed dose, Adrenals: 8.39E−02 mGy/MBq
  Total absorbed dose, Brain: 6.18E−05 mGy/MBq
  Total absorbed dose, Gallbladder Wall: 2.30E−02 mGy/MBq
  Total absorbed dose, Heart Wall: 6.94E−03 mGy/MBq
  Total absorbed dose, Kidneys: 1.74E+00 mGy/MBq
  Total absorbed dose, LLI Wall: 4.64E−03 mGy/MBq
  Total absorbed dose, Liver: 2.51E−02 mGy/MBq
  Total absorbed dose, Lungs: 6.11E−03 mGy/MBq
  Total absorbed dose, Muscle: 6.00E−03 mGy/MBq
  Total absorbed dose, Osteogenic Cells: 5.31E−03 mGy/MBq
  Total absorbed dose, Pancreas: 4.83E−02 mGy/MBq
  Total absorbed dose, Red Marrow: 1.11E−02 mGy/MBq
  Total absorbed dose, Skin: 2.90E−03 mGy/MBq
  Total absorbed dose, Small Intestine: 3.79E−02 mGy/MBq
  Total absorbed dose, Spleen: 7.37E−02 mGy/MBq
  Total absorbed dose, Stomach Wall: 1.71E−02 mGy/MBq
  Total absorbed dose, Testes: 5.39E−04 mGy/MBq
  Total absorbed dose, Thymus: 1.67E−03 mGy/MBq
  Total absorbed dose, Thyroid: 4.99E−04 mGy/MBq
  Total absorbed dose, Total Body: 1.38E−02 mGy/MBq
  Total absorbed dose, ULI Wall: 1.43E−02 mGy/MBq
  Total absorbed dose, Urinary Bladder Wall: 2.06E−03 mGy/MBq
[3]; after injecting 100-150 MBq
  absorbed dose in the kidneys: 0.17-0.26 Gy
